Measurements from the NIST ThermoML archive (doi:10.1016/j.fluid.2005.01.001).
± gives the expanded uncertainty stated by the source.

Details: Liquid

FCC(F)(F)F [1,1,1,2-tetrafluoroethane]
Details | vapor or sublimation pressure [kPa]
277.22 K | 339.5 ± 1.2
279.24 K | 364 ± 1.2
281.25 K | 389.7 ± 1.3
283.24 K | 416.7 ± 1.4
285.26 K | 445.4 ± 1.5
287.27 K | 475.4 ± 1.6
289.27 K | 506.9 ± 1.7
291.29 K | 539.9 ± 1.8
293.31 K | 575.1 ± 1.9
295.3 K | 610.8 ± 2
297.32 K | 649.3 ± 2.2
299.21 K | 685.5 ± 2.5
299.31 K | 688.7 ± 2.5
299.34 K | 689.4 ± 2.5
301.19 K | 726.7 ± 2.6
301.3 K | 730 ± 2.6
303.06 K | 767 ± 2.6
303.19 K | 769.8 ± 2.6
303.31 K | 773.5 ± 2.6
305.33 K | 819.1 ± 2.7
307.34 K | 866.6 ± 2.9
309.35 K | 916 ± 3
311.35 K | 967.3 ± 3.2
313.31 K | 1019.3 ± 3.4
315.36 K | 1076.9 ± 3.5
317.32 K | 1133 ± 3.7
319.38 K | 1195.5 ± 3.9
321.34 K | 1256.1 ± 4.1
329.37 K | 1532.3 ± 5
335.39 K | 1767.4 ± 5.7
337.41 K | 1851.9 ± 6
339.41 K | 1939.2 ± 6.3
341.43 K | 2029.5 ± 6.6
343.43 K | 2123 ± 6.9
347.44 K | 2319.8 ± 7.5
349.46 K | 2419.4 ± 7.8
351.46 K | 2530.3 ± 8.2
353.48 K | 2641.1 ± 8.5
355.48 K | 2755.4 ± 8.9
360.48 K | 3054.3 ± 9.8

COC [dimethyl ether]
Details | vapor or sublimation pressure [kPa]
278.25 K | 317.6 ± 1
283.2 K | 373.6 ± 1.2
288.19 K | 437.4 ± 1.4
293.2 K | 509.4 ± 1.6
298.19 K | 589.6 ± 1.9
303.18 K | 679.2 ± 2.2
303.19 K | 678.1 ± 2.2
308.19 K | 778.7 ± 2.5
313.2 K | 888.8 ± 2.8
318.19 K | 1009.5 ± 3.2
323.28 K | 1144.5 ± 3.6
323.37 K | 1146.2 ± 3.6
328.25 K | 1289.2 ± 4.1
333.23 K | 1447.2 ± 4.6
338.23 K | 1619.9 ± 5.1
343.18 K | 1805.3 ± 5.7
343.41 K | 1814.4 ± 5.7
347.42 K | 1976.8 ± 6.2
348.17 K | 2007.3 ± 6.3
351.44 K | 2149.6 ± 6.7
353.1 K | 2224.5 ± 7
353.45 K | 2240 ± 7
355.08 K | 2315.6 ± 7.3
355.46 K | 2333.3 ± 7.3
357.49 K | 2429.5 ± 7.6
359.49 K | 2528.5 ± 7.9
360.52 K | 2579.1 ± 8.1
